Publication PMC9907012, “Synthesis and characterisation of new antimalarial fluorinated triazolopyrazine compounds” (Beilstein Journal of Organic Chemistry, 2023)
Where two headings read alike, the source gives them in different places.

Columns and labels:
[1] = tested on: P. falciparum Dd2 (chloroquine, pyrimethamine and mefloquine drug-resistant strain); experiment: In vitro anti-plasmodial image-based assay, P. falciparum Dd2; assay type: cell-based, Plasmodium falciparum; settings: for IC50 / inhibition at 80 µM: Plasmodium falciparum, DD2; for IC50: 72 h incubation, read-out: Pf Dd2 IC50 ± SD; for SI for Dd2: SI = HEK293 IC50/parasite IC50; for inhibition at 80 µM: top dose of 80 µM, read-out: Pf Dd2 inhibition at the top dose (no IC50 given)
Experimental: (§1) S4: In vitro anti-plasmodial image-based assay
(§2) Plasmodium falciparum 3D7 and Dd2 parasites were cultured in RPMI1640 (Life Technologies, Camarillo, CA, USA) supplemented with 2.5 mg/mL Albumax II, 5% AB human serum, 25 mM HEPES, and 0.37mM hypoxanthine. Ring stage parasites were treated with compounds following two rounds of sorbitol synchronization, as previously described.
(§3) Following incubation of assay plates for 72 h at 37 °C, and 5% CO2 and 5% O2, parasites were stained with 2-(4-amidinophenyl)-1H-indole-6-carboxamidine (DAPI) and imaged using an Opera PhenixTM High Content Screening System (PerkinElmer, Waltham, MA, USA). Images were analysed using Harmony software (PerkinElmer, Waltham, MA, USA).
(§4) S5: In vitro cytotoxicity assay
(§5) Human embryonic kidney (HEK293) cells were maintained in DMEM (Life Technologies, Camarillo, CA, USA) containing 10% FBS (Hyclone™ ThermoFisher, Melbourne, Australia).
(§6) Cytotoxicity testing was undertaken, as previously described. In brief, 5 μL of test compound was added to the well of black/clear tissue culture-treated, 384-well plates containing 3000 adherent HEK 293 cells/well in 45 μL and incubated 72 h at 37 °C in 5% CO2.
(§7) After incubation, the supernatant was removed and replaced with 40 μL of 10% Alamar Blue per well. Plates were incubated for 5−6 h and measured for fluorescence at 530 -nm excitation and 595-nm emission. The % inhibition was calculated using 0.4% DMSO (no inhibition) and […]
(§8) IC 50 values were obtained by plotting % inhibition against log dose using GraphPad Prism v.6 (San Diego, CA, USA) nonlinear regression with a […]

[2] = tested on: P. falciparum 3D7 (chloroquine-sensitive strain); experiment: In vitro anti-plasmodial image-based assay, P. falciparum 3D7; assay type: cell-based, Plasmodium falciparum; settings: for IC50 / inhibition at 80 µM: Plasmodium falciparum, 3D7; for IC50: 72 h incubation, read-out: Pf 3D7 IC50 ± SD; for SI for 3D7: SI = HEK293 IC50/parasite IC50; for inhibition at 80 µM: top dose of 80 µM, read-out: Pf 3D7 inhibition at the top dose (no IC50 given)
Experimental: as §1, §2, §3, §4, §5, §6, §7, §8

[3] = tested on: Plasmodium falciparum (Pf); settings: previous study; read-out: IC50 (antimalarial activity); cited from earlier work
[4] = values marked d are estimated IC50 as a plateau of inhibition was not reached

Row | IC50 [1, 4] [µM] | IC50 [2, 4] [µM] | melting point [°C] | IC50 ([2]; controls) [µM] | IC50 ([1]; controls) [µM] | Compound | SI for Dd2 [1] | SI for 3D7 [2] | inhibition at 80 µM [1] [%] | IC50 [3] [µM] | inhibition at 80 µM [2] [%]
1 | 19.6 ± 0.42 | 16.4 ± 1.13 |  |  |  | FC(F)Oc1ccc(-c2nnc3c(C(F)F)ncc(OCCc4ccccc4)n23)cc1 [Compound 12, 3-(4-(Difluoromethoxy)phenyl)-8-(difluoromethyl)-5-phenethoxy-[1,2,4]triazolo[4,3-a]pyrazine] | >4 | >5 |  |  | 
2 | 0.26 ± 0.01 | 0.24 ± 0.01 |  |  |  | FC(F)Oc1ccc(-c2nnc3cncc(OCCc4ccccc4)n23)cc1 [Compound 4] | >312 | >329 |  |  | 
3 | 1.17 ± 0.09 | 1.15 ± 0.05 | 136 to 138 |  |  | N#Cc1ccc(-c2nnc3cncc(OCCc4ccccc4)n23)cc1 [Compound 6, 4-(5-phenethoxy-[1,2,4]triazolo[4,3-a]pyrazin-3-yl)benzonitrile] | >68 | >70 |  |  | 
4 | 0.22 ± 0.01 | 0.2 ± 0.02 | 131 to 132 |  |  | Clc1ccc(-c2nnc3cncc(OCCc4ccccc4)n23)cc1 [Compound 5, 3-(4-chlorophenyl)-5-phenethoxy-[1,2,4]triazolo[4,3-a]pyrazine] | >364 | >396 |  |  | 
5 |  |  |  | 0.0152 ± 0.0012 |  | CCc1nc(N)nc(N)c1-c1ccc(Cl)cc1 [Pyrimethamine, reference compound] |  | >657 | < 33 |  | 
6 | 58.6 ± 1.68 | 31 ± 2.37 | 109 to 111 |  |  | N#Cc1ccc(-c2nnc3c(C(F)F)ncc(OCCc4ccccc4)n23)cc1 [Compound 18, 4-(8-(Difluoromethyl)-5-phenethoxy-[1,2,4]triazolo[4,3-a]pyrazin-3-yl)benzonitrile] | >1 | >3 |  |  | 
7 | 17.1 ± 0.43 | 18.9 ± 0.63 |  |  |  | Clc1ccc(-c2nnc3cncc(Cl)n23)cc1 [Compound 2] | >4 | >4 |  | 12.6 | 
8 | 17.1 ± 0.71 | 11.3 ± 1.45 |  |  |  | FC(F)Oc1ccc(-c2nnc3c(C(F)(F)F)ncc(OCCc4ccccc4)n23)cc1 [Compound 10, 3-(4-(Difluoromethoxy)phenyl)-5-phenethoxy-8-(trifluoromethyl)-[1,2,4]triazolo[4,3-a]pyrazine] | >4 | >7 |  |  | 
9 | 26.2 ± 1.01 | 35.5 ± 3.33 |  |  |  | N#Cc1ccc(-c2nnc3cncc(Cl)n23)cc1 [Compound 3] | >3 | >2 |  |  | 
10 |  |  |  |  |  | CCOc1cncc2nnc(-c3ccc(OC(F)F)cc3)n12 [Compound 7, 3-(4-(difluoromethoxy)phenyl)-5-ethoxy-[1,2,4]triazolo[4,3-a]pyrazine] |  |  | < 81 |  | < 81
11 | 34.5 ± 4.46 | 45.2 ± 5.42 |  |  |  | FC(F)Oc1ccc(-c2nnc3cncc(Cl)n23)cc1 [Compound 1] | >2 | >2 |  |  | 
12 |  |  |  | 0.079 ± 0.0057 | 0.102 ± 0.0095 | COc1ccc(C[C@H](N)C(=O)N[C@H]2[C@@H](O)[C@H](n3cnc4c(N(C)C)ncnc43)O[C@@H]2CO)cc1 [Puromycin, reference compound] | 98 | 127 |  |  | 
13 |  |  |  |  |  | CC(F)(F)c1ncc(OCCc2ccccc2)n2c(-c3ccc(C#N)cc3)nnc12 [Compound 17, 4-(8-(1,1-Difluoroethyl)-5-phenethoxy-[1,2,4]triazolo[4,3-a]pyrazin-3-yl)benzonitrile] |  |  | < 33 |  | < 33
14 | 10.2 ± 0.75 | 9.43 ± 0.44 |  |  |  | FC(F)(F)c1ncc(OCCc2ccccc2)n2c(-c3ccc(Cl)cc3)nnc12 [Compound 13, 3-(4-Chlorophenyl)-5-phenethoxy-8-(trifluoromethyl)-[1,2,4]triazolo[4,3-a]pyrazine] | >8 | >9 |  |  | 
15 | 14.3 ± 2.26 | 18.8 ± 0.21 |  |  |  | FC(F)c1ncc(OCCc2ccccc2)n2c(-c3ccc(Cl)cc3)nnc12 [Compound 15, 3-(4-Chlorophenyl)-8-(difluoromethyl)-5-phenethoxy-[1,2,4]triazolo[4,3-a]pyrazine] | >6 | >4 |  |  | 
16 | 2.91 ± 0.18 | 2.72 ± 0.03 |  |  |  | CCOc1cncc2nnc(-c3ccc(Cl)cc3)n12 [Compound 8, 3-(4-chlorophenyl)-5-ethoxy-[1,2,4]triazolo[4,3-a]pyrazine] | >27 | >29 |  |  | 
17 | 45.1 ± 6.58 | 22.5 ± 1.03 |  |  |  | N#Cc1ccc(-c2nnc3c(C(F)(F)F)ncc(OCCc4ccccc4)n23)cc1 [Compound 16, 4-(5-Phenethoxy-8-(trifluoromethyl)-[1,2,4]triazolo[4,3-a]pyrazin-3-yl)benzonitrile] | >2 | >4 |  |  | 
